Experimental data reported in article PMC7909954 (eLife, 2021).
Where two headings read alike, the source gives them in different places.

Experiments:
MOR [1] = biological target: T1, MOR (Homo sapiens, UniProt P35372)
KOR [2] = biological target: T2, KOR (Homo sapiens, UniProt P41145)
rKOR [3] = biological target: T3, rKOR (Rattus norvegicus, UniProt P34975)
MOR [4] = biological target: T1, MOR; assay: cell-based
KOR [5] = biological target: T2, KOR; assay: cell-based; details: EC50 cAMP inhibition hKOR
DOR [6] = biological target: T4, DOR (Homo sapiens, UniProt P41143); assay: cell-based
T4 sequence (P41143 whole entry): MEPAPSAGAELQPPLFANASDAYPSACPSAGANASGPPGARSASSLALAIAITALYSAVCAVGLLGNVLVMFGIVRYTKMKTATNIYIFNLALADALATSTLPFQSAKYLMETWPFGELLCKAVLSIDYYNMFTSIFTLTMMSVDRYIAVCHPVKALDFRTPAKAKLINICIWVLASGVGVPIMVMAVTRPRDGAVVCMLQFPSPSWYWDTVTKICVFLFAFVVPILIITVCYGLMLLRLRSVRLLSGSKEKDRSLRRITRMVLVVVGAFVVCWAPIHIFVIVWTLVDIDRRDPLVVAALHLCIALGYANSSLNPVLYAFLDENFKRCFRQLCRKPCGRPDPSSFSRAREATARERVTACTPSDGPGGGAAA

MOR [7] = biological target: T1, MOR; assay: cell-based; remark: listed apart in the source
KOR [8] = biological target: T2, KOR; assay: cell-based
DOR [9] = biological target: T4, DOR; assay: cell-based; remark: listed apart in the source
mMOR [10] = biological target: T5, mMOR (Mus musculus, UniProt P42866); assay: cell-based
T5 sequence (P42866 whole entry): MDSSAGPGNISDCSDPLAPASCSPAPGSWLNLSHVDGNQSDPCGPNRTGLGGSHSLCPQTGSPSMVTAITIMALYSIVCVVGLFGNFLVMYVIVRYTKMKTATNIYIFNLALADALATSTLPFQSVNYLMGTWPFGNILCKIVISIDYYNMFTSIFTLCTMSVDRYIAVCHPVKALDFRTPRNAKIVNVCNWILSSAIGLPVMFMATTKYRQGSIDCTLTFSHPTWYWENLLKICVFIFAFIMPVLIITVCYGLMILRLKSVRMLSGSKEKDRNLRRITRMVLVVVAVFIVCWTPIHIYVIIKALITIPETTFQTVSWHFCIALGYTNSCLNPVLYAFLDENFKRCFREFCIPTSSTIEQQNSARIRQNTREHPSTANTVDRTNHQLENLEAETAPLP

rKOR [11] = biological target: T3, rKOR; assay: cell-based; details: HEK-293T, read-out: Emax% G protein activation (BRET) rKOR
mDOR [12] = biological target: T6, mDOR (Mus musculus, UniProt P32300); assay: cell-based
T6 sequence (P32300 whole entry): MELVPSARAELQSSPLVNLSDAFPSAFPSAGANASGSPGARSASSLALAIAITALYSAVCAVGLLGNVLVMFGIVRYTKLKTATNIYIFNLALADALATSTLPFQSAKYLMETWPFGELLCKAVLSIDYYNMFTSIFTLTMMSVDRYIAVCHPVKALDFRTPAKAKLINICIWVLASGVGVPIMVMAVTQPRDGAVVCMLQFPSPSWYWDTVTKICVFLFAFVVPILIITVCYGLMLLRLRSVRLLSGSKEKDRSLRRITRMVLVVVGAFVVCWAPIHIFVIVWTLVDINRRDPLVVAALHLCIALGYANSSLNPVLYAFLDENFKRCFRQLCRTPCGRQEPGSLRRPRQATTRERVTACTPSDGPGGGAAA

rKOR [13] = biological target: T3, rKOR; assay: cell-based; details: HEK-293T, read-out: Emax% arrestin recruitment (BRET) rKOR
mMOR [14] = biological target: T5, mMOR; assay: biochemical
mDOR [15] = biological target: T6, mDOR; assay: cell-based; remark: listed apart in the source
mKOR [16] = biological target: T7, mKOR (Mus musculus, UniProt P33534); assay: biochemical
T7 sequence (P33534 whole entry): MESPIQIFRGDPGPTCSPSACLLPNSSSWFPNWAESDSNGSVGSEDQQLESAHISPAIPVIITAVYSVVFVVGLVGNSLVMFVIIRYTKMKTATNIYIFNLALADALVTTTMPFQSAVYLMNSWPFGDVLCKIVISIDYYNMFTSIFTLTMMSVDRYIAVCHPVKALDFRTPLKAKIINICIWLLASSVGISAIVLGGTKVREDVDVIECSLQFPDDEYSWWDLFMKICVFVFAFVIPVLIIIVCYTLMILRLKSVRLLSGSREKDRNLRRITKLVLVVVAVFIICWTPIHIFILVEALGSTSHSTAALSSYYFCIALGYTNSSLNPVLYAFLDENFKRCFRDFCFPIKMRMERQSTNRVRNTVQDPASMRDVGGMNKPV

mMOR [17] = biological target: T5, mMOR; assay: biochemical; remark: listed apart in the source
mKOR [18] = biological target: T7, mKOR; assay: biochemical; remark: listed apart in the source
mDOR [19] = biological target: T6, mDOR; assay: biochemical; details: read-out: Emax mDOR [35S]GTPγS
mMOR [20] = biological target: T5, mMOR; assay: cell-based; parameters: expressed in transfected cells; host or cells: HEK-293T
mMOR [21] = biological target: T5, mMOR; type: cell-based; parameters: expressed in transfected cells; host or cells: HEK-293T
[22] = transduction coefficient log(T/KA)

T1 sequence (P35372 whole entry): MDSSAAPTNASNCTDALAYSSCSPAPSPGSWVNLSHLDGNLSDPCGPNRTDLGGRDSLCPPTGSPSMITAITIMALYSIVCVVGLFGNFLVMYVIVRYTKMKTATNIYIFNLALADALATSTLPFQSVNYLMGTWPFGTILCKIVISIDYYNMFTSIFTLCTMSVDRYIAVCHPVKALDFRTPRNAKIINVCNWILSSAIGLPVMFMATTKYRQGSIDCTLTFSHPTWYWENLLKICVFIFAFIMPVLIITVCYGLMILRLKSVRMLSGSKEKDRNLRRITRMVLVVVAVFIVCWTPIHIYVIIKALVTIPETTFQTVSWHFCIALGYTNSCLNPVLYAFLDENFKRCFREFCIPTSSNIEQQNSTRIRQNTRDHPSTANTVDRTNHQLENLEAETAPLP
T2 sequence (P41145 whole entry): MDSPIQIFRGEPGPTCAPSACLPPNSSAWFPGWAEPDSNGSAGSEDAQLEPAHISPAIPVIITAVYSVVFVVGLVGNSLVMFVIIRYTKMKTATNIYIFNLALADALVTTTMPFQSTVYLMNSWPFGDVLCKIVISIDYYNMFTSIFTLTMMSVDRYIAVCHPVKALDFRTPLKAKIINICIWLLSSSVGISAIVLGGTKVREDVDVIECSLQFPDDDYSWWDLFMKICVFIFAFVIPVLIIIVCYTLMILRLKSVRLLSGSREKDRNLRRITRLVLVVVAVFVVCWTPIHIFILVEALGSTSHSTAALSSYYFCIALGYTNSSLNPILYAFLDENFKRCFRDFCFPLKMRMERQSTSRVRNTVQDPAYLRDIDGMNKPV
T3 sequence (P34975 whole entry): as the sequence (P33534 whole entry) above, with D11E, S17A, S51P, A308V counted along it

`O=C(NC1C=CC2C3Cc4ccc(O)c5c4C2(CCN3CC2CC2)C1O5)c1cccc(I)c1` (stereo not shown) [MP1104] was tested, and the “Bias factor (cAMP-Tango) hMOR” value (MOR [1]) was 0.58, the “Log RA cAMP hMOR” value (MOR [1]) was 10.12±0.009 and the “LogRA Tango hMOR” value (MOR [1]) was 9.18±0.013. The “ΔlogRA Tango hMOR” value (MOR [1]) was 1.26±0.019, the “ΔlogRA cAMP hMOR” value (MOR [1]) was 1.018±0.012 and the “ΔΔlog RA (cAMP-Tango) hMOR” value (MOR [1]) was -0.24±0.022. The “ΔΔlog RA (cAMP-Tango) hKOR” value (KOR [2]) was -0.81±0.055, the “Bias factor (cAMP-Tango) hKOR” value (KOR [2]; >1 G protein bias, <1 arrestin bias, vs U50,488h) was 0.15 and the “Log RA cAMP hKOR” value (KOR [2]; [22]) was 11.44±0.034. For the same molecule, the “LogRA Tango hKOR” value (KOR [2]; [22]) was 10.45±0.019, the “ΔlogRA Tango hKOR” value (KOR [2]; vs U50,488h) was 2.16±0.027 and the “ΔlogRA cAMP hKOR” value (KOR [2]; vs U50,488h) was 1.35±0.048. For the same molecule, the “Log RA BRET-G rKOR” value (rKOR [3]) was 10.07±0.047, the “LogRA BRET-Arr rKOR” value (rKOR [3]) was 8.84±0.033 and the “ΔΔlog RA (BRETG-BRETArr) rKOR” value (rKOR [3]) was -0.64±0.079. For the same molecule, the “Bias factor (BRETG-BRETArr) rKOR” value (rKOR [3]; vs U50,488h) was 0.23, the “ΔlogRA BRET-G rKOR” value (rKOR [3]; vs U50,488h) was 1.067±0.064 and the “ΔlogRA BRET-arr rKOR” value (rKOR [3]; vs U50,488h) was 1.702±0.047. It also gave an EC50 (MOR [4]; EC50 cAMP inhibition hMOR) of 0.074 nM, an Emax (MOR [4]; HEK-293T, read-out: Emax% cAMP inhibition hMOR) of 94 ± 1% and an EC50 (KOR [5]) of 0.00327 nM. It also gave an EC50 (DOR [6]; EC50 cAMP inhibition hDOR) of 0.4 nM, an Emax (DOR [6]; HEK-293T, read-out: Emax% cAMP inhibition hDOR) of 99 ± 1.1% and an EC50 (MOR [7]) of 0.573 nM. For the same molecule, the Emax (MOR [7]; HTLA, read-out: Emax% arrestin recruitment (Tango) hMOR) was 90 ± 2.28%, the EC50 (KOR [8]; EC50 arrestin recruitment (Tango) hKOR) was 0.0394 nM and the Emax (KOR [8]; HTLA, read-out: Emax% arrestin recruitment (Tango) hKOR) was 117 ± 2%. For the same molecule, the EC50 (DOR [9]; EC50 arrestin recruitment hDOR, Tango) was 3.73 nM, the Emax (DOR [9]; HTLA, read-out: Emax% arrestin recruitment hDOR) was 189 ± 5.5% and the EC50 (mMOR [10]; EC50 G protein activation (BRET) mMOR) was 0.66 nM. The Emax (mMOR [10]; HEK-293T, read-out: Emax% G protein activation (BRET) mMOR) was 62 ± 2%, the Emax (rKOR [11]) was 93 ± 1% and the EC50 (mDOR [12]; EC50 G protein activation (BRET) mDOR) was 1.4 nM. For the same molecule, the Emax (mDOR [12]; HEK-293T, read-out: Emax% G protein activation (BRET) mDOR) was 91 ± 1.7%, the Emax (rKOR [13]) was 89 ± 2.6% and the Ki (mMOR [14]) was 0.021 nM. The EC50 (mDOR [15]; EC50 arrestin recruitment (BRET) mDOR) was 26 nM, the Emax (mDOR [15]; HEK-293T, read-out: Emax% arrestin recruitment (BRET) mDOR) was 40 ± 1.7% and the Ki (mKOR [16]) was 0.0064 nM. It also gave an EC50 (mMOR [17]; EC50 mMOR [35S]GTPγS, ± SEM) of 0.21 ± 0.03 nM, an Emax (mMOR [17]; read-out: Emax mMOR [35S]GTPγS) of 103 ± 2% and an EC50 (mKOR [18]; EC50 mKOR [35S]GTPγS, ± SEM) of 0.027 ± 0.002 nM. It also gave an Emax (mKOR [18]; read-out: Emax mKOR [35S]GTPγS) of 104 ± 2%, an Emax (mDOR [19]) of 88% and an EC50 (mMOR [20]) of 0.285 nM. For the same molecule, the Emax (mMOR [20]; HEK-293T, read-out: Emax% arrestin recruitment (BRET) mMOR) was 53 ± 1.6%, the “Bias factor (BRETG-BRETArr) mMOR” value (mMOR [21]) was 0.11 and the “Log RA BRET-G mMOR” value (mMOR [21]) was 8.917±0.12. The “LogRA BRET-Arr mMOR” value (mMOR [21]) was 9.196±0.06, the “ΔlogRA BRET-G mMOR” value (mMOR [21]) was 0.357±0.173 and the “ΔlogRA BRET-arr mMOR” value (mMOR [21]) was 1.323±0.09. For the same molecule, the “ΔΔlog RA (BRETG-BRETArr) mMOR” value (mMOR [21]) was -0.966±0.195.
